Measured values from patent US20220160601A1, “Sunscreen Compositions” (Curie Co. Inc., priority 2020, published 2022).

Columns and labels:
[1] = UV/Vis spectral properties (Cary-50 spectrophotometer); assay type: physicochemical; conditions: for UVA and UVB absorption properties compared to oxybenzone / absorption spectra, regions encompassed: acetonitrile; for UVA and UVB absorption properties compared to oxybenzone: 5 mM or 0.05 mM, FIG. 1; for absorption spectra, regions encompassed: 5 mM (N-Boc-Imine-6 also 0.05 mM), compared to oxybenzone, FIG. 3
Method: Imine-1, Imine-2, and Imine-3 were synthesized, purified, and isolated (see above). All three compounds were separately dissolved in acetonitrile to a final concentration of 5 mM (FIG. 1) or 0.05 mM (FIG. 1, inset) and analyzed by UV/Vis (Cary-50 Spectrophotomer). The spectral properties were compared to oxybenzone in acetonitrile.
Carbamate-1, first described in U.S. Pat. No. 5,490,980A, was synthesized, purified, and isolated (see above). Carbamate-1 was dissolved in acetonitrile to a final concentration of 0.05 mM and analyzed by UV/Vis (Cary-50 Spectrophotomer). The spectral properties were compared to oxybenzone in acetonitrile at a final concentration of 0.05 mM.
Imine-4, Imine-5, and N-Boc-Imine-6 were synthesized, purified, and isolated (see above). All three compounds were separately dissolved in acetonitrile to a final concentration of 5 mM (FIG. 3) and analyzed by UV/Vis (Cary-50 Spectrophotomer). N-Boc-Imine-6 was diluted in acetonitrile to a final concentration of 0.05 mM (FIG. 3, inset) and analyzed by UV/Vis. […] Spectral properties were compared to oxybenzone in acetonitrile at the same concentration.
To understand the solution stability of the Boc-protected imines in protic solvent, N-Boc-Imine-6 was prepared in ethanol in the presence of catalytic glacial acetic acid. Briefly, to a solution of oxybenzone (0.10 g, 0.438 mmol, 1 eq) and N-Boc-1,6-hexanediamine (0.094 g, 0.43 mmol, 1 eq) in ethanol (0.3 mL) was added catalytic glacial acetic acid (1 μL). The reaction mixture was agitated at 900 rpm at 70° C. for 16 hr and monitored by LCMS. […] The reaction was then diluted in ethanol to final concentration of 0.04 mM and analyzed by UV/Vis spectroscopy.
N-Boc-Imine-8 and Imine-8 was synthesized, purified, and isolated (see above). N-Boc-Imine-8 and Imine-8 were dissolved in ethanol to a final concentration of 0.032 mM and 8 mM, respectively (FIG. 6) and analyzed by UV/Vis. (Cary-50 Spectrophotomer). Spectral properties were compared to sulisobenzone in ethanol at similar concentration.
Imine-10 was first dissolved in methyl tert-butyl ether and then diluted in ethanol to a final concentration of 5 mM and 0.04 mM (FIG. 7) and analyzed by UV/Vis. (Cary-50 Spectrophotomer). Spectral properties were compared to oxybenzone at similar concentration.

[2] = Solution stability of Boc-protected imine in protic solvent (ethanol); assay type: physicochemical; conditions: 70° C., catalytic glacial acetic acid, LCMS and UV/Vis
Method: To understand the solution stability of the Boc-protected imines in protic solvent, N-Boc-Imine-6 was prepared in ethanol in the presence of catalytic glacial acetic acid. Briefly, to a solution of oxybenzone (0.10 g, 0.438 mmol, 1 eq) and N-Boc-1,6-hexanediamine (0.094 g, 0.43 mmol, 1 eq) in ethanol (0.3 mL) was added catalytic glacial acetic acid (1 μL). The reaction mixture was agitated at 900 rpm at 70° C. for 16 hr and monitored by LCMS. Full reaction of the starting material to a single product peak was observed by LCMS indicating completion. The reaction was then diluted in ethanol to final concentration of 0.04 mM and analyzed by UV/Vis spectroscopy. […] Additionally, the Boc-protecting group remained intact throughout the reaction and UV/Vis analysis.

Compound: COc1ccc(/C(=N/Cc2ccccc2)c2ccccc2)c(O)c1 [Imine-1]
- UVA and UVB absorption properties compared to oxybenzone [1]: improved both UVA-1, UVA-2, and UVB absorption properties

Compound: COc1ccc(/C(=N/c2ccccc2)c2ccccc2)c(O)c1 [Imine-2]
- UVA and UVB absorption properties compared to oxybenzone [1]: improved both UVA-1, UVA-2, and UVB absorption properties

Compound: COc1ccc(/C(=N/O)c2ccccc2)c(O)c1 [Imine-3]
- UVA and UVB absorption properties compared to oxybenzone [1]: loss in the UVA blocking and reduction in UVB blocking

Compound: COc1ccc(/C(=N/C(CCC(N)=O)C(=O)O)c2ccccc2)c(O)c1 (stereo not drawn) [Imine-5]
- absorption spectra, regions encompassed [1]: encompassed the UVA-1, UVA-2, and UVB regions as well as the visible region of the spectrum (greater than 400 nm)

Compound: COc1cc(O)c(/C(=N\CCCCCCN)c2ccccc2)cc1S(=O)(=O)O [Imine-8]
- UVA and UVB absorption properties compared to sulisobenzone ([1]; ethanol, N-Boc-Imine-8 0.032 mM, Imine-8 8 mM, FIG. 6): retained absorbance in the UVB region and extended absorbance into the UVA region

Compound: CCCCCCOC(=O)c1ccccc1/C(=N/CCCCCCN)c1cccc(N(CC)CC)c1O [Imine-9]
- shift of the absorbance spectra ([1]; data not shown): red shift of the absorbance spectra, which extends to the visible region

Compound: COc1ccc(/C(=N/CCCCCCNC(=O)OC(C)(C)C)c2ccccc2)c(O)c1 [N-Boc-Imine-6]
- solution stability without reversion to the starting ketone and amine [2]: stable over 24 hours
- absorption spectra, regions encompassed [1]: encompassed the UVA-1, UVA-2, and UVB regions as well as the visible region of the spectrum (greater than 400 nm)
- absorption, regions encompassed ([1]; ethanol, 0.04 mM, FIG. 4): encompasses the UVA and UVB regions as well as the visible region of the spectrum (greater than 400 nm)
